Measured values taken from ChEMBL document CHEMBL4376820, “Homodimeric Tobramycin Adjuvant Repurposes Novobiocin as an Effective Antibacterial Agent against Gram-Negative Bacteria” (J Med Chem, 2019).
Activity calls are given as the source filed them. The rule behind the calls is not given here.

Experiments:
Pseudomonas aeruginosa [1] = assay: Potentiation of novobiocin-induced antibacterial activity against mexAB-oprM/mexCD-oprJ/mexEF-oprN/mexJK/mexXY/opmH mutant deficient Pseudomonas aeruginosa PAO750 assessed as novobiocin MIC at <= 7.1 uM incubated for 18 hrs by CLSI protocol based assay (reference value: 32 ug/ml); format: functional; conditions: PAO750, 18 h
Enterobacter cloacae [2] = assay: Potentiation of novobiocin-induced antibacterial activity against Enterobacter cloacae 117029 clinical solate assessed as fold reduction in novobiocin MIC incubated for 18 hrs by CLSI protocol based assay relative to novobiocin MIC; format: functional
Pseudomonas aeruginosa [3] = assay: Synergistic antibacterial activity against wild type Pseudomonas aeruginosa PAO1 assessed as potentiation of levofloxacin-induced antibacterial effect incubated for 18 hrs by checkerboard assay relative to levofloxacin alone; format: functional
Escherichia coli [4] = assay: Potentiation of novobiocin-induced antibacterial activity against carbapenem-resistant Escherichia coli 107115 clinical isolate harboring mcr-1 gene assessed as novobiocin MIC at <= 7.1 uM incubated for 18 hrs by CLSI protocol based assay (reference value: 128 ug/ml); format: functional; conditions: Escherichia coli, 107115, 18 h
Escherichia coli [5] = assay: Potentiation of novobiocin-induced antibacterial activity against carbapenem-resistant Escherichia coli 107115 clinical isolate harboring mcr-1 gene assessed as fold reduction in novobiocin MIC incubated for 18 hrs by CLSI protocol based assay relative to novobiocin MIC; format: functional
Pseudomonas aeruginosa [6] = assay: Antibacterial activity against carbapenem-resistant Pseudomonas aeruginosa 101885 clinical isolate incubated for 18 hrs by CLSI protocol based assay; format: functional; conditions: Pseudomonas aeruginosa, 101885, 18 h
Pseudomonas aeruginosa [7] = assay: Antibacterial activity against colistin and carbapenem-resistant Pseudomonas aeruginosa 101243 clinical isolate incubated for 18 hrs by CLSI protocol based assay; format: functional; conditions: Pseudomonas aeruginosa, 101243, 18 h
Enterobacter cloacae [8] = assay: Antibacterial activity against colistin-resistant Enterobacter cloacae 121187 clinical solate incubated for 18 hrs by CLSI protocol based assay; format: functional; conditions: Enterobacter cloacae, 121187, 18 h
Pseudomonas aeruginosa [9] = assay: Synergistic antibacterial activity against wild type Pseudomonas aeruginosa PAO1 assessed as potentiation of colistin-induced antibacterial effect at <=7.1 uM incubated for 18 hrs by checkerboard assay; format: functional, organism-based
Pseudomonas aeruginosa [10] = assay: Antibacterial activity against Pseudomonas aeruginosa 259-96918 clinical isolate incubated for 18 hrs by CLSI protocol based assay; format: functional; conditions: 259-96918, 18 h
Escherichia coli [11] = assay: Potentiation of novobiocin-induced antibacterial activity against colistin-resistant Escherichia coli 94474 clinical isolate harboring mcr-1 gene assessed as novobiocin MIC at <= 7.1 uM incubated for 18 hrs by CLSI protocol based assay (reference value: 256 ug/ml); format: functional; conditions: Escherichia coli, 94474, 18 h
Pseudomonas aeruginosa [12] = assay: Synergistic antibacterial activity against wild type Pseudomonas aeruginosa PAO1 assessed as potentiation of aztreonam-induced antibacterial effect incubated for 18 hrs by checkerboard assay relative to aztreonam alone; format: functional
Pseudomonas aeruginosa [13] = assay: Potentiation of novobiocin-induced antibacterial activity against carbapenem and colistin-resistant Pseudomonas aeruginosa 91433 clinical isolate assessed as novobiocin MIC at <= 7.1 uM incubated for 18 hrs by CLSI protocol based assay (reference value: 16 ug/ml); format: functional; conditions: Pseudomonas aeruginosa, 91433, 18 h
Klebsiella pneumoniae [14] = assay: Potentiation of novobiocin-induced antibacterial activity against colistin-resistant Klebsiella pneumoniae 113254 clinical isolate assessed as novobiocin MIC at <= 7.1 uM incubated for 18 hrs by CLSI protocol based assay (reference value: 256 ug/ml); format: functional; conditions: Klebsiella pneumoniae, 113254, 18 h
Acinetobacter baumannii [15] = assay: Potentiation of novobiocin-induced antibacterial activity against Acinetobacter baumannii 027 clinical isolate assessed as novobiocin MIC at <= 7.1 uM incubated for 18 hrs by CLSI protocol based assay (reference value: 8 ug/ml); format: functional; conditions: Acinetobacter baumannii, 027, 18 h
Pseudomonas aeruginosa [16] = assay: Synergistic antibacterial activity against wild type Pseudomonas aeruginosa PAO1 assessed as potentiation of ciprofloxacin-induced antibacterial effect incubated for 18 hrs by checkerboard assay; format: functional, organism-based
Escherichia coli [17] = assay: Potentiation of novobiocin-induced antibacterial activity against wild type Escherichia coli ATCC 25922 assessed as fold reduction in novobiocin MIC incubated for 18 hrs by CLSI protocol based assay relative to novobiocin MIC; format: functional
Erythrocyte = assay: Hemolytic activity against porcine erythrocytes assessed as hemoglobin release at 1024 ug/ml incubated for 1 hr by microplate reader analysis; format: ADME, cell-based, Sus scrofa; conditions: pig
Klebsiella pneumoniae [18] = assay: Antibacterial activity against Klebsiella pneumoniae 116381 clinical isolate incubated for 18 hrs by CLSI protocol based assay; format: functional; conditions: Klebsiella pneumoniae, 116381, 18 h
Klebsiella pneumoniae [19] = assay: Antibacterial activity against colistin-resistant Klebsiella pneumoniae 113254 clinical isolate incubated for 18 hrs by CLSI protocol based assay; format: functional; conditions: Klebsiella pneumoniae, 113254, 18 h
Pseudomonas aeruginosa [20] = assay: Antibacterial activity against carbapenem-resistant Pseudomonas aeruginosa 264-104354 clinical isolate incubated for 18 hrs by CLSI protocol based assay; format: functional; conditions: 264-104354, 18 h
Acinetobacter baumannii [21] = assay: Antibacterial activity against wild type Acinetobacter baumannii ATCC 17978 assessed as resistant development at 7.1 uM measured after 3 days of passaging in presence of novobiocin by microbroth dilution method relative to control; format: functional
Enterobacter cloacae [22] = assay: Antibacterial activity against colistin-resistant Enterobacter cloacae 118568 clinical solate incubated for 18 hrs by CLSI protocol based assay; format: functional; conditions: Enterobacter cloacae, 118568, 18 h
Pseudomonas aeruginosa [23] = assay: Potentiation of novobiocin-induced antibacterial activity against wild type Pseudomonas aeruginosa PAO1 assessed as fold reduction in novobiocin MIC incubated for 18 hrs by CLSI protocol based assay relative to novobiocin MIC; format: functional
Pseudomonas aeruginosa [24] = assay: Potentiation of novobiocin-induced antibacterial activity against carbapenem and colistin-resistant Pseudomonas aeruginosa 91433 clinical isolate assessed as fold reduction in novobiocin MIC incubated for 18 hrs by CLSI protocol based assay relative to novobiocin MIC; format: functional
Pseudomonas aeruginosa [25] = assay: Antibacterial activity against mexAB-oprM mutant deficient Pseudomonas aeruginosa PAO200 incubated for 18 hrs by CLSI protocol based assay; format: functional; conditions: PAO200, 18 h
HepG2 = assay: Cytotoxicity against human HepG2 cells at 50 uM incubated for 48 hrs by PrestoBlue dye based fluorescence assay; format: cell-based; conditions: hepg2, 48 h
Acinetobacter baumannii [26] = assay: Potentiation of novobiocin-induced antibacterial activity against Acinetobacter baumannii 110193 clinical isolate assessed as fold reduction in novobiocin MIC incubated for 18 hrs by CLSI protocol based assay relative to novobiocin MIC; format: functional
Acinetobacter baumannii [27] = assay: Antibacterial activity against novobiocin and test compound-resistant Acinetobacter baumannii ATCC 17978 mutant generated from seven serial passages in presence of novobiocin by checkerboard assay; format: functional
Acinetobacter baumannii [28] = assay: Antibacterial activity against novobiocin-resistant Acinetobacter baumannii ATCC 17978 mutant generated from seven serial passages by checkerboard assay; format: functional
Escherichia coli [29] = assay: Antibacterial activity against colistin-resistant Escherichia coli 94474 clinical isolate harboring mcr-1 gene incubated for 18 hrs by CLSI protocol based assay; format: functional; conditions: Escherichia coli, 94474, 18 h
Pseudomonas aeruginosa [30] = assay: Synergistic antibacterial activity against wild type Pseudomonas aeruginosa PAO1 assessed as potentiation of clindamycin-induced antibacterial effect incubated for 18 hrs by checkerboard assay relative to clindamycin alone; format: functional
Acinetobacter baumannii [31] = assay: Potentiation of novobiocin-induced antibacterial activity against Acinetobacter baumannii LAC-4 clinical isolate assessed as fold reduction in novobiocin MIC incubated for 18 hrs by CLSI protocol based assay relative to novobiocin MIC; format: functional
Pseudomonas aeruginosa [32] = assay: Synergistic antibacterial activity against wild type Pseudomonas aeruginosa PAO1 assessed as potentiation of minocycline-induced antibacterial effect incubated for 18 hrs by checkerboard assay; format: functional, organism-based

Compound: NC[C@H]1O[C@H](O[C@H]2[C@H](OCCCCc3cn(CCCCO[C@@H]4[C@@H](O[C@H]5O[C@H](CO)[C@@H](O)[C@H](N)[C@H]5O)[C@H](N)C[C@H](N)[C@H]4O[C@H]4O[C@H](CN)[C@@H](O)C[C@H]4N)nn3)[C@@H](O[C@H]3O[C@H](CO)[C@@H](O)[C@H](N)[C@H]3O)[C@H](N)C[C@@H]2N)[C@H](N)C[C@@H]1O.O=C(O)C(F)(F)F.O=C(O)C(F)(F)F.O=C(O)C(F)(F)F.O=C(O)C(F)(F)F.O=C(O)C(F)(F)F.O=C(O)C(F)(F)F.O=C(O)C(F)(F)F.O=C(O)C(F)(F)F.O=C(O)C(F)(F)F.O=C(O)C(F)(F)F
- MIC (Pseudomonas aeruginosa [1]): 0.125 µg/mL
- Ratio (Enterobacter cloacae [2]): 128
- fold change (FC) (Pseudomonas aeruginosa [3]): 4 - 128
- MIC (Escherichia coli [4]): 8 µg/mL
- Ratio (Escherichia coli [5]): 16
- MIC (Pseudomonas aeruginosa [6]): > 128 µg/mL
- MIC (Pseudomonas aeruginosa [7]): > 128 µg/mL
- MIC (Enterobacter cloacae [8]): > 128 µg/mL
- Activity (Pseudomonas aeruginosa [9]): inactive
- MIC (Pseudomonas aeruginosa [10]): > 128 µg/mL
- MIC (Escherichia coli [11]): 16 µg/mL
- fold change (FC) (Pseudomonas aeruginosa [12]): 4 - 128
- MIC (Pseudomonas aeruginosa [13]): 1 µg/mL
- MIC (Klebsiella pneumoniae [14]): 16 µg/mL
- MIC (Acinetobacter baumannii [15]): 0.5 µg/mL
- Activity (Pseudomonas aeruginosa [16]): Dose-dependent effect
- Ratio (Escherichia coli [17]): 32
- Activity (Erythrocyte): Non-Toxic
- MIC (Klebsiella pneumoniae [18]): > 128 µg/mL
- MIC (Klebsiella pneumoniae [19]): > 128 µg/mL
- MIC (Pseudomonas aeruginosa [20]): > 128 µg/mL
- fold change (FC) (Acinetobacter baumannii [21]): 4
- MIC (Enterobacter cloacae [22]): > 128 µg/mL
- Ratio (Pseudomonas aeruginosa [23]): 128
- Ratio (Pseudomonas aeruginosa [24]): 16
- MIC (Pseudomonas aeruginosa [25]): > 128 µg/mL
- Activity (HepG2): Non-Toxic
- Ratio (Acinetobacter baumannii [26]): 256
- MIC (Acinetobacter baumannii [27]): 16 µg/mL
- MIC (Acinetobacter baumannii [28]): 128 µg/mL
- MIC (Escherichia coli [29]): > 128 µg/mL
- fold change (FC) (Pseudomonas aeruginosa [30]): 4 - 128
- Ratio (Acinetobacter baumannii [31]): 16
- Activity (Pseudomonas aeruginosa [32]): Dose-dependent effect
